Experimental data taken from patent publication US11078262B2, “High viscosity macromolecular compositions for treating ocular conditions” (ALLERGAN, INC., priority 2007, dated 2021).

Tested on: macula edema with central retinal vein occlusion and/or branch retinal vein occlusion
Experiment: Treatment of macular edema with intravitreal MAAC composition (ETDRS visual acuity)
Assay type: in vivo, human
Details: patient; 1 mg intravitreal every 4 months; twelve months after the first injection
Experimental: An obese patient with symptoms of diabetes presents with vision loss due to macula edema with central retinal vein occlusion and/or branch retinal vein occlusion. They receive intravitreal injection of 1 mg of a high viscosity MAAC (polymeric hyaluronate based) solution containing COMPOUND D, such as the Example 13 formulation. Equivalent injections are made every 4 months.

Substance: siRNA Z (chain 1 CUGAGUUUAAAAGGCACCCTT; chain 2 TTGACUCAAAUUUUCCGUGGG; chemically modified, pattern not given here; one strand is listed 3' to 5') [COMPOUND D]
- improved best corrected visual acuity from baseline (ETDRS chart): fifteen
